These results are taken from patent US20250282799A1, “SUBSTITUTED PYRIDO[4,3-d]PYRIMIDINES AS KRAS MODULATORS” (Alterome Therapeutics, Inc., priority 2023, published 2025).

For assay [1], the system named is KRAS G12V dependent lung adenocarcinoma cell line, NCI-H441. Briefly: Cellular pERK (Thr202/Tyr204) FRET/HTRF assay. The class given is cell-based. To be noted: Homo sapiens, NCI-H441, cellular pERK (Thr202/Tyr204) HTRF, NCI-H441 cells. An outline of the steps: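 Adherent NCI-H441 cells, plated the previous night, receive test compound for one hour at 37 °C. They are then lysed with a buffer containing phosphatase inhibitors and incubated at room temperature with Eu3+-cryptate and d2 labelled anti-pERK antibodies. HTRF signal gives IC50 by curve fitting.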
On the technique in general: In TR-FRET formats the signal depends on donor and acceptor labels being close together.

Another assay deals with KRAS (G12V)/CRAF (Homo sapiens (Human), UniProt P01116, G12V). Nature of the assay: TR-FRET biochemical KRAS:CRAF protein:protein interaction assay, KRAS (G12V). The class given is binding. As to conditions: GMPPNP loaded Biotin-KRAS (G12V), FLAG CRAF RBD; read-out: TR-Fret_PPI KRAS (G12V)/CRAF IC50. As to the method:
(§1) The effect of test compounds on KRAS and CRAF protein: protein interaction (PPI) was measured by time resolved fluorescence resonance energy transfer (TR-FRET) Ras binding domain (RBD) assay, which uses a signal generated through fluorescent resonance energy transfer between a donor and an acceptor molecule when in close proximity to each other. Interference from buffer, media, etc. is reduced by dual-wavelength detection; the energy pulse from the excitation source is followed by a time delay, which allows interfering short-lived fluorescence to decay (Degorce et al. 2009).
(§2) The KRAS: CRAF PPI assay can be utilized to identify KRAS ‘ON’ state inhibitors, as the KRAS protein is loaded with GMPPNP (a non-hydrolyzable GTP analog), which represents the active KRAS ‘ON’ state. FLAG-tagged CRAF RBD binding to the GMPPNP loaded biotin-tagged KRAS will result in a fluorescence energy transfer from the donor (Tb-anti-FLAG, emission 620 nm) to the acceptor (SA-XL665, emission 665 nm). Disruption of KRAS and CRAF binding will reduce the TR-FRET signal.
(§3) Test compound was dissolved in DMSO to create a 1 mM stock solution. A 45 μL volume of stock solution was transferred to a 384well polypropylene plate. A 3fold, 10point dilution was performed by transferring 15 μL of test compound solution into 30 μL of DMSO.
(§4) Assay buffer A was prepared with […] Hepes, pH7.3, 0.002% Tween 20, 0.1% BSA, […] NaCl, 5 mM MgCl2, and 10 uM GMP-PNP. 4× KRAS Solution was prepared with 80 nM of Biotin-KRAS (G12D/V), GMPPNP loaded or Biotin-KRAS (WT), GMPPNP loaded protein in assay buffer A. 4× Raf RBD Solution was prepared with 400 nM FLAG CRAF RBD in assay buffer A. 2× Detection Mixture was prepared with 2 nM Tb-anti-FLAG antibody and 10 nM and 10 nM SA-XL665 in assay buffer A.
(§5) A volume of 100 nL of 100× test compound working solution or DMSO vehicle control solution was dispensed to each well (duplicate for each concentration) of a 384-well ProxiPlate Plus assay plate. A volume of 2.5 μL of 4× KRAS Solution was added to each well of the assay plate for a final concentration of 20 nM Biotin-KRAS (G12D/V),GMPPNP loaded or 20 nM Biotin-KRAS (WT), GMPPNP. For low control, add 2.5 μL of assay buffer (no KRAS protein). Pre-incubate assay plate for 30 minutes at room temperature. Following pre-incubation of test compound or DMSO with Biotin-KRAS (G12D/V),GMPPNP loaded or Biotin-KRAS (WT),GMPPNP, a volume of 2.5 μL of 4× FLAG cRAF RBD Solution was added to each well of the assay plate for a final concentration of 100 nM FLAG CRAF RBD. The assay plate was subjected to centrifuge at 1000 rpm for 1 minute and pre-incubate assay plate for 150 minutes at room temperature. Following the pre-incubation with FLAG cRAF RBD, a volume of 5 μl of 2× Detection Mixture was added to each well of the assay plate for a final concentration of 1 nM Tb-anti-FLAG and 5 nM SA-XL665. The assay plate was centrifuged at 1000 rpm for 1 minute and incubated for 90 minutes at room temperature. TR-FRET signal was measured on a BioTek Synergy Neo2 microplate reader (excitation at 340 nm, emission at 665 nn and 620 nm).
(§6) TR-FRET ratios were calculated by dividing the acceptor emission value (665 nm) by the donor emission value (620 nm) for each sample.
(§7) Percent inhibition was calculated by multiplying the normalized TR-FRET ratio by 100, where TR-FRET ratio^HIGH was the TR-FRET ratio obtained from wells with 1% DMSO and complete reaction mixture, TR-FRET ratio^LOW was the ratio obtained from wells with 1% DMSO and reaction mixture without KRAS protein and TR-FRET ratio^SAMPLE was the TR-FRET ratio from wells with test compound and complete reaction mixture. The IC50 values were calculated from normalized TR-FRET ratios with the Levenberg-Marquardt 4 parameter fitting procedure.
(§8) This assay quantifies the interaction of a KRAS mutant protein (e.g., G12V) with the CRAF Ras-binding domain (RBD). […]

Another assay has as its target KRAS (G12D)/CRAF (Homo sapiens (Human), UniProt P01116, G12D). Briefly: TR-FRET biochemical KRAS:CRAF protein:protein interaction assay, KRAS (G12D). The format is binding. As to conditions: GMPPNP loaded Biotin-KRAS (G12D), FLAG CRAF RBD; read-out: TR-Fret_PPI KRAS (G12D)/CRAF IC50. On the procedure: as §1, §2, §3, §4, §5, §6, §7, §8

Chain of KRAS (G12V)/CRAF (P01116-2 other isoform, or with tags, fused parts or gaps G12V): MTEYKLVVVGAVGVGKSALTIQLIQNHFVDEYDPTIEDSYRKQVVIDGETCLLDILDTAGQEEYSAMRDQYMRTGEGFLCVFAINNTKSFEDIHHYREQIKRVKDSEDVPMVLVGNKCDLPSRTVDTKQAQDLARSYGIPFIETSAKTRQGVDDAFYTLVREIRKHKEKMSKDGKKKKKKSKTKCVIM
Chain of KRAS (G12D)/CRAF (P01116-2 other isoform, or with tags, fused parts or gaps G12D): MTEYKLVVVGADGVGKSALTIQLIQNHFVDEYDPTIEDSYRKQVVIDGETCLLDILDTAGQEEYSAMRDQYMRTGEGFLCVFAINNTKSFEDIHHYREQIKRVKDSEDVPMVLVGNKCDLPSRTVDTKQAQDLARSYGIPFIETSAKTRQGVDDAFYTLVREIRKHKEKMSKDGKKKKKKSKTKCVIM

For `[2H]C([2H])(Oc1nc(N2CCOC[C@@H]3[C@@H](F)[C@@H]32)c2c(OC)nc(-c3cc(N)cc4ccc(F)c(C#C)c34)c(F)c2n1)[C@@]12CCCN1C[C@H](F)C2` [Example 223, 5-ethynyl-6-fluoro-4-(8-fluoro-4-((1R,7R,8R)-8-fluoro-5-oxa-2-azabicyclo[5.1.0]octan-2-yl)-2-(((2R,7aS)-2-fluorotetrahydro-1H-pyrrolizin-7a(5H)-yl)methoxy-d2)-5-methoxypyrido[4,3-d]pyrimidin-7-yl)naphthalen-2-amine], the IC50 in assay [1] is 500 to 10000 nM; on KRAS (G12V)/CRAF, 3 µM; at KRAS (G12D)/CRAF, 3000 nM.

For the compound `[2H]C([2H])(Oc1nc(N2CCOC[C@@H]3[C@H](F)[C@@H]32)c2cnc(-c3cc(N)cc4ccc(F)c(C#C)c34)c(F)c2n1)[C@@]12CCCN1C[C@H](F)C2` [Example 224, 5-ethynyl-6-fluoro-4-(8-fluoro-4-((1R,7R,8S)-8-fluoro-5-oxa-2-azabicyclo[5.1.0]octan-2-yl)-2-(((2R,7aS)-2-fluorotetrahydro-1H-pyrrolizin-7a(5H)-yl)methoxy-d2)pyrido[4,3-d]pyrimidin-7-yl)naphthalen-2-amine], the IC50 in assay [1] was 500 to 10000 nM; at KRAS (G12V)/CRAF, greater than 3 µM; on KRAS (G12D)/CRAF, greater than 3000 nM.

For the compound `[2H]C([2H])(Oc1nc(N2CCOC[C@H]3[C@@H](F)[C@H]32)c2cnc(-c3cc(N)cc4ccc(F)c(C#C)c34)c(F)c2n1)[C@@]12CCCN1C[C@H](F)C2` [Example 225, 5-ethynyl-6-fluoro-4-(8-fluoro-4-((1S,7S,8R)-8-fluoro-5-oxa-2-azabicyclo[5.1.0]octan-2-yl)-2-(((2R,7aS)-2-fluorotetrahydro-1H-pyrrolizin-7a(5H)-yl)methoxy-d2)pyrido[4,3-d]pyrimidin-7-yl)naphthalen-2-amine], the IC50 in assay [1] is less than 50 nM; on KRAS (G12V)/CRAF, 2.91 µM; at KRAS (G12D)/CRAF it was 264 nM.

On to `[2H]C([2H])(Oc1nc(N2CCOC[C@H]3[C@@H](Cl)[C@H]32)c2cnc(-c3cc(N)cc4ccc(F)c(C#C)c34)c(F)c2n1)[C@@]12CCCN1C[C@H](F)C2` [Example 247, 4-(4-((1S,7S,8R)-8-chloro-5-oxa-2-azabicyclo[5.1.0]octan-2-yl)-8-fluoro-2-(((2R,7aS)-2-fluorotetrahydro-1H-pyrrolizin-7a(5H)-yl)methoxy-d2)pyrido[4,3-d]pyrimidin-7-yl)-5-ethynyl-6-fluoronaphthalen-2-amine], for which the IC50 in assay [1] is 50 to 500 nM; on KRAS (G12V)/CRAF it was 3 µM; at KRAS (G12D)/CRAF, 1390 nM.

Consider `[2H]C([2H])(Oc1nc(N2CCOC[C@H]3[C@H](Cl)[C@H]32)c2cnc(-c3cc(N)cc4ccc(F)c(C#C)c34)c(F)c2n1)[C@@]12CCCN1C[C@H](F)C2` [Example 248, 4-(4-((1S,7S,8S)-8-Chloro-5-oxa-2-azabicyclo[5.1.0]octan-2-yl)-8-fluoro-2-(((2R,7aS)-2-fluorotetrahydro-1H-pyrrolizin-7a(5H)-yl)methoxy-d2)pyrido[4,3-d]pyrimidin-7-yl)-5-ethynyl-6-fluoronaphthalen-2-amine], for which the IC50 in assay [1] was less than 50 nM; on KRAS (G12V)/CRAF it was 0.0526 µM; on KRAS (G12D)/CRAF, 8.25 nM.

In the case of `[2H]C([2H])(Oc1nc(N2CCOC[C@@H]3[C@@H](Cl)[C@@H]32)c2cnc(-c3cc(N)cc4ccc(F)c(C#C)c34)c(F)c2n1)[C@@]12CCCN1C[C@H](F)C2` [Example 249, 4-(4-((1R,7R,8R)-8-chloro-5-oxa-2-azabicyclo[5.1.0]octan-2-yl)-8-fluoro-2-(((2R,7aS)-2-fluorotetrahydro-1H-pyrrolizin-7a(5H)-yl)methoxy-d2)pyrido[4,3-d]pyrimidin-7-yl)-5-ethynyl-6-fluoronaphthalen-2-amine], the values for the IC50 (in assay [1]; on KRAS (G12V)/CRAF; at KRAS (G12D)/CRAF) were less than 50 nM, 3 µM and 648 nM, respectively.

Regarding `[2H]C([2H])(Oc1nc(N2CCOC[C@@H]3[C@H](Cl)[C@@H]32)c2cnc(-c3cc(N)cc4ccc(F)c(C#C)c34)c(F)c2n1)[C@@]12CCCN1C[C@H](F)C2` [Example 250, 4-(4-((1R,7R,8S)-8-chloro-5-oxa-2-azabicyclo[5.1.0]octan-2-yl)-8-fluoro-2-(((2R,7aS)-2-fluorotetrahydro-1H-pyrrolizin-7a(5H)-yl)methoxy-d2)pyrido[4,3-d]pyrimidin-7-yl)-5-ethynyl-6-fluoronaphthalen-2-amine], the results for the IC50 (in assay [1]; at KRAS (G12V)/CRAF; on KRAS (G12D)/CRAF) were 50 to 500 nM, 3 µM and 1670 nM, respectively.

On to `[2H]C([2H])(Oc1nc(N2CCCO[C@H]3[C@H](Cl)[C@H]32)c2cnc(-c3cc(N)cc4ccc(F)c(C#C)c34)c(F)c2n1)[C@@]12CCCN1C[C@H](F)C2` [Example 316, 4-(4-((1R,7S,8R)-8-Chloro-2-oxa-6-azabicyclo[5.1.0]octan-6-yl)-8-fluoro-2-(((2R,7aS)-2-fluorotetrahydro-1H-pyrrolizin-7a(5H)-yl)methoxy-d2)pyrido[4,3-d]pyrimidin-7-yl)-5-ethynyl-6-fluoronaphthalen-2-amine], for which the IC50 in assay [1] was less than 50 nM; on KRAS (G12V)/CRAF, 0.0512 µM; at KRAS (G12D)/CRAF, 14.1 nM.

`[2H]C([2H])(Oc1nc(N2CCCO[C@@H]3[C@@H](Cl)[C@@H]32)c2cnc(-c3cc(N)cc4ccc(F)c(C#C)c34)c(F)c2n1)[C@@]12CCCN1C[C@H](F)C2` [Example 317, 4-(4-((1S,7R,8S)-8-chloro-2-oxa-6-azabicyclo[5.1.0]octan-6-yl)-8-fluoro-2-(((2R,7aS)-2-fluorotetrahydro-1H-pyrrolizin-7a(5H)-yl)methoxy-d2)pyrido[4,3-d]pyrimidin-7-yl)-5-ethynyl-6-fluoronaphthalen-2-amine]: the values for the IC50 (in assay [1]; on KRAS (G12V)/CRAF; on KRAS (G12D)/CRAF) were 50 to 500 nM, 3 µM and 3000 nM, respectively.

Take `[2H]C([2H])(Oc1nc(N2CCOC[C@@H]3[C@@H](Cl)[C@@H]32)c2cnc(-c3cc(N)cc4ccc(F)c(C#C)c34)c(F)c2n1)[C@@]12CCCN1[C@H](C)[C@H](F)C2` [Example 339, 4-(4-((1R,7R,8R)-8-chloro-5-oxa-2-azabicyclo[5.1.0]octan-2-yl)-8-fluoro-2-(((2R,3R,7aS)-2-fluoro-3-methyltetrahydro-1H-pyrrolizin-7a(5H)-yl)methoxy-d2)pyrido[4,3-d]pyrimidin-7-yl)-5-ethynyl-6-fluoronaphthalen-2-amine]: the IC50 in assay [1] was 500 to 10000 nM; on KRAS (G12V)/CRAF it was no less than 10 µM; at KRAS (G12D)/CRAF it was 3000 nM.
